Assay results as given in a melting point compilation (Tetko et al.; mined from patent text by program, amines drawn as free bases though some values may be those of a salt).

Row | Compound | melting point
1 | CCc1nc2c(N)nc3ccc(-c4ccccc4)cc3c2n1CC(C)C | 233 to 235 °C
2 | COc1cc(C2=NNC(=O)CC2)ccc1OCC1CO1 (centres undefined) | 134 to 136 °C
3 | CNC(=O)C(C)c1ccc2c(c1)CCc1ccccc1C2=O (centres undefined) | 140 °C
4 | CCCc1nc2c(N)nc3cc(OCCCNC(=O)c4cccnc4)ccc3c2n1CC(C)C | 172 to 174 °C
5 | COc1ccccc1N1CCN(CCCNC(=O)c2cccc3c(=O)c(C)c(C4CCC(C)CC4)oc23)CC1 (centres undefined) | 166 °C
6 | O=C(Nc1ccc(F)cc1)c1ccccc1-c1cccc(F)c1 | 147 to 148 °C
7 | CN1C(=O)Cc2cc3ccccc3cc2S1(=O)=O | 126 to 127 °C
8 | COC(=O)C=Cc1[nH]c(=O)c2c(ccc3nc(Nc4c(Cl)cccc4Cl)n(C)c32)c1C | > 300 °C
9 | COc1ccc(F)cc1C(C)(C)c1cc(Cl)ccc1O | 97 °C
10 | CC(C)C[C@@H](COCC(N)=O)NC(=O)OCc1ccccc1 | 78 to 79 °C
11 | Cc1ccc(-c2ccc(N3CCCN(c4ccc(-c5ccc(C)cc5)cn4)CC3)nc2)cc1 | 245 to 247 °C
12 | Cc1ccc(C)c(OCCCC(C)(C)C(=O)Nc2cccc(N)c2)c1 | 93 to 94 °C
13 | COc1cc2nc(N3CCN(c4ccnc(N5CCOCC5)n4)CC3)nc(N)c2cc1OC | 232 to 233 °C
14 | CCC(O)(c1ccc(Cl)cc1)c1ccc(OCCCN2CCCCC2)cc1 (centres undefined) | 104 to 105 °C
15 | CCOC(=S)CC/C(C)=C/Cc1c(OC)c(C)c2c(c1OC(N)=O)C(=O)OC2 | 145 to 147 °C
16 | c1ccc(COc2cccc(OCc3ccccc3)c2OCc2ccccc2)cc1 | 67 to 68 °C
17 | N#Cc1ncc(Cl)nc1Br | 66 to 67 °C
18 | C/C=C/C(=O)NC(=O)OC | 149 to 150 °C
19 | N#Cc1ccc(N2CCOCC2)c(NC(N)=S)c1 | 193 to 194 °C
20 | CNc1cc(Oc2cccc(C(F)(F)F)c2)nc(C(=O)O)c1 | 66 to 68 °C

Row | Compound | melting point
21 | CC(=O)O[C@@H]1C2=C(OC(C(C)=O)=C[C@@H]2N2CCCCC2=O)SC1(C)C (relative stereo) | 180 °C
22 | CC(C)(C)OC(=O)N1CCC(NC(=O)c2ccc(Cn3cccn3)cc2)CC1 | 168 to 169 °C
23 | CS(=O)(=O)c1ccc(-c2oc(CCCC(=O)O)nc2-c2ccc(F)cc2)cc1 | 140 to 141 °C
24 | CCCCCCCNC(=O)Nc1ccccc1CCc1cc(C(C)C)c(O)c(C(C)C)c1 | 150 to 151 °C
25 | O=C1CC2CC(n3c(=O)[nH]c4ccccc43)CC2C1 (centres undefined) | 246 to 248 °C
26 | COC(=O)c1ncsc1CCNC(=O)OCc1ccccc1 | 108 to 110 °C
27 | CCN(CC)CCNC(=O)c1ccc(N(S(C)(=O)=O)S(C)(=O)=O)cc1OC | 144 °C
28 | c1coc(Cn2c(NC3CCN(CCNc4nccs4)CC3)nc3ccccc32)c1 | 153 °C
29 | CS(=O)(=O)c1ccc(-c2cnn(-c3cccc(Cl)c3)c(=O)c2Oc2ccccc2)cc1 | 205 to 207 °C
30 | CC(C)(C)OC(=O)N1CC2CCCCC(C1)C2C=O (centres undefined) | 55 to 60 °C
31 | O=C(O)Cc1ccc(-n2sc3ccccc3c2=O)cc1 | 173 to 175 °C
32 | COCCNC(=O)c1cccc(-c2cccc3oc(Cc4ccc(F)c(Cl)c4)cc23)c1 | 77 to 78 °C
33 | CCCCn1c(=O)c2nn(S(=O)(=O)Cc3ccccc3)cc2n(CCCC)c1=O | 90 to 93 °C
34 | CC(=O)n1c(C)cc(=O)n(-c2cc(C(=O)OC(C)C)c(Cl)cc2F)c1=O | 168 to 170 °C
35 | CCN(CC)CCCNC(=O)C1=C(O)c2ccccc2S(=O)(=O)N1C | 107 to 110 °C
36 | Nc1ccc(Nc2c(NCc3ccco3)cc(C(=O)O)cc2S(N)(=O)=O)cc1 | 232 °C
37 | COc1cccc2c1nc(C)c1ccn(-c3ccccc3C)c12 | 143 to 145 °C
38 | CCCc1c[nH]c2cc(CO)ccc12 | 68 to 71 °C
39 | Cc1nc2cc(C(F)(F)F)c(Cl)c([N+](=O)[O-])c2n1N(C)C | 160 to 162 °C
